The text below walks through data of patent US20210293785A1, “METHODS FOR PREDICTING STEROID RESPONSIVENESS” (FLORIDA STATE UNIVERSITY RESEARCH FOUNDATION, INC., priority 2020, published 2021).

The test system of the assay is keloid fibroblasts. As to the kind of experiment: Cell proliferation assay of patient-derived fibroblasts with or without steroid. It is filed as cell-based, human. The protocol:
As depicted in the flow diagram of FIG. 3, in some embodiments, the method of the invention involves culturing small (˜2 mm) tissue pieces using standard cell culture media and conditions to allow the outgrowth of cells, which takes 1-2 weeks. Depending upon the desired cell type or cell types, non-invasive sampling methods can be utilized, such an oral rinse. The outgrown cells are collected by trypsinization and re-seeded in fresh wells. Upon attachment, the cells are treated in triplicate with or without 10 micromolar Triamcinolone Acetonide (TA), a potent synthetic steroid used widely in the clinic, or varying concentrations of any other test steroid. The viable cells are harvested 4-7 days post-treatment (when the untreated cells start approaching confluency) and counted to determine the effects of the steroid on cell proliferation. The inventors have tested the method of the invention using fibroblast cells derived from 3 normal human skin biopsies as well as 20 surgically excised keloids from patients and exposing them to TA, as well as hydrocortisone, another commonly used steroid in the clinic. The results were remarkably similar to those observed for the response of keloid patients to steroids in the clinic, with 52% of the samples being sensitive (responsive) to the TA treatment, while 39% were non-responsive and 9% were hyperproliferative in TA (which predicts a worsening of condition upon steroid therapy). In summary, our screening test described herein can be used to determine patients' responses to steroids in less than 4 weeks, following which responsive patients can undergo steroid therapy, while others can avoid the potentially harmful steroids altogether and seek other therapies. Culture of keloid derived primary fibroblast cells. Surgically excised keloid and normal skin explants were obtained from patients under Florida State University IRB (2016.19175 and 2017.22173). The explants were cut into small pieces, digested with trypsin, washed with and cultured in DMEM containing 10% fetal bovine serum and Antibiotic/Antimycotic solution maintained at 37° C. and 5% CO2. Outgrowth of only primary dermal fibroblasts occurred under our culture conditions and these were recovered by trypsinization for use in experiments at low passage. The keloid fibroblasts are morphologically identical to commercially obtained normal primary Human Dermal Fibroblasts (HDF) (Cell Applications, Cat.#106-05a) used in our controls. Cell proliferation assays. To determine relative cell survival following radiation or steroid treatments, 7,500 fibroblasts were seeded per well in triplicate in 12-well plates. Following attachment, the cells were treated with steroids or irradiated using a X-Rad 320 irradiator. Surviving fibroblasts were counted on a Coulter counter 7 days post-treatment.

Setting [1] is: fibroblasts from 3 normal human skin biopsies and 20 surgically excised keloids, 10 micromolar TA, cells counted 4-7 days post-treatment.
[2] abbreviates: keloid explants and fibroblasts, 10 μM TA for a week.

With `CC1(C)O[C@@H]2C[C@H]3[C@@H]4CCC5=CC(=O)C=C[C@]5(C)[C@@]4(F)[C@@H](O)C[C@]3(C)[C@]2(C(=O)CO)O1` [TA, Triamcinolone Acetonide], under setting [1], the “samples hyperproliferative in TA” value is 9%, the “samples non-responsive to TA” value is 39% and the “samples sensitive (responsive) to the TA treatment” value is 52%. Besides, under setting [2], the samples with hyperproliferation is reported as 10%, the “samples with modest reduction in proliferation (steroid sensitive)” value is on record as 50% and the “samples with no significant effects on proliferation (steroid insensitive)” value amounted to 40%.
